Measured values reported in US10689705B2, “FGFR3 fusion gene and pharmaceutical drug targeting same” (Chugai Seiyaku Kabushiki Kaisha, priority 2012, dated 2020).

What was measured:
[1] = system: human bladder cancer cell line RT112/84; test: Antitumor effect in cancer-bearing nude mice (FGFR3-TACC3 fusion); type: in vivo, BALB/c nude mice; settings: RT112/84 xenograft
Description: Nude mice were quarantined for about one week before use, and subjected to subcutaneous transplantation of about 1×10^7 RT112/84 cells in the inguinal region. When the tumor size reached about 200 mm^3, the mice were used in experiments.
Antitumor effect was determined by comparing the tumor growth during 11 days after the first day of administration (Day 10 when the first day of administration is set at Day 0) with that of the control group. Tumor growth inhibitory effect(TGI)=(1−[Average tumor growth level of treated group]/[Average tumor growth level of control group])×100(%)

[2] = system: human bladder cancer cell line SW780; test: Antitumor effect in cancer-bearing nude mice (FGFR3-BAIAP2L1 fusion); type: in vivo, BALB/c nude mice; settings: SW780 xenograft
Description: Nude mice were quarantined for about one week before use, and subjected to subcutaneous transplantation of 5×10^6 SW780 cells in the inguinal region. When the tumor size reached about 200 mm^3, the mice were used in experiments. […] Antitumor effect was determined by comparing the tumor growth during 11 days after the first day of administration (Day 10 when the first day of administration is set at Day 0) with that of the control group. Tumor growth inhibitory effect(TGI)=(1−[Average tumor growth level of treated group]/[Average tumor growth level of control group])×100(%)

HT-1376 = test: Cell proliferation inhibition, WST-8, four days (Example 3); type: cell-based; settings: Homo sapiens, HT-1376, 96 h, does not express FGFR3
Description: (§1) IC50 was calculated using the least-square method.

RT112/84 = test: as above; type: cell-based; settings: Homo sapiens, RT112/84, 96 h, fusion polypeptide expressing
Description: as §1

BFTC-905 = test: as above; type: cell-based; settings: Homo sapiens, BFTC-905, 96 h, wild-type FGFR, no fusion
Description: as §1

UM-UC-14 = test: as above; type: cell-based; settings: Homo sapiens, UMUC14, 96 h, mutated type FGFR, no fusion
Description: as §1

SW780 = test: as above; type: cell-based; settings: Homo sapiens, SW780, 96 h, fusion polypeptide expressing
Description: as §1

RT4 = test: as above; type: cell-based; settings: Homo sapiens, RT-4, 96 h, fusion polypeptide expressing
Description: as §1

[3] = system: RAT-2 cells that stably express FGFR3-BAIAP2L1; settings: orally once daily from seven days after planting; concentration-dependent (FIG. 13)
[4] = system: bladder cancer-derived cell line RT-4 which expresses an FGFR3-TACC3 fusion polypeptide; test: tissue or blood; settings: Homo sapiens, 96 h, read-out: RT-4 (Bladder) IC50
[5] = system: colon cancer-derived cell line HCT116; test: cells; settings: Homo sapiens, HCT-116, 96 h, read-out: HCT116 (CRC) IC50;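 note: proliferation measured with WST-8, IC50 derived by least-squares fitting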

Row | IC50 (HT-1376) [nM] | IC50 (SW780) [nM] | SMILES | TGI AFTER 11 DAYS ([1]; 25 mg/kg orally once a day) [%] | TGI AFTER 11 DAYS ([1]; 50 mg/kg orally once a day) [%] | TGI AFTER 11 DAYS ([1]; 100 mg/kg orally once a day) [%] | TGI AFTER 11 DAYS ([2]; 25 mg/kg orally once a day) [%] | TGI AFTER 11 DAYS ([2]; 50 mg/kg orally once a day) [%] | TGI AFTER 11 DAYS ([2]; 100 mg/kg orally once a day) [%] | IC50 (RT112/84) [nM] | IC50 (BFTC-905) [nM] | IC50 (UM-UC-14) [nM] | IC50 (RT4) [nM] | tumor enlargement enhanced by the FGFR3-BAIAP2L1 fusion polypeptide [3] | IC50 [4] [nM] | IC50 [5] [nM]
1 | 6700 | 160 | COc1cc(CCc2cc(NC(=O)c3ccc(N4C[C@@H](C)N[C@@H](C)C4)cc3)[nH]n2)cc(OC)c1 [COMPOUND C, AZD-4547] |  |  |  |  |  |  | 17 | 11000 | 16 | 250 |  |  | 
2 | 10000 | 1100 | CCN1CCN(c2ccc(Nc3cc(N(C)C(=O)Nc4c(Cl)c(OC)cc(OC)c4Cl)ncn3)cc2)CC1 [COMPOUND D, BGJ-398] |  |  |  |  |  |  | 18 | > 20000 | 17 | 230 |  |  | 
3 | 1100 | 530 | COc1cc2c(Oc3ccc4[nH]c(C)cc4c3F)ncnc2cc1OCCCN1CCCC1 [COMPOUND E, cediranib] |  |  |  |  |  |  | 150 | 2500 | 66 | 240 |  |  | 
4 | 620 | 570 | CN1CCN(c2ccc3nc(-c4c(N)c5c(F)cccc5[nH]c4=O)[nH]c3c2)CC1 [COMPOUND F, dovitinib] |  |  |  |  |  |  | 130 | 2800 | 75 | 250 |  |  | 
5 |  |  | Cc1nc2ccc(-n3ncc(C(=O)c4cc5ccccc5[nH]4)c3N)cc2[nH]1 [Compound 49] |  |  |  |  |  |  |  |  |  |  |  | 350 | 13000

Row | SMILES | IC50 (HT-1376) [nM] | IC50 (SW780) [nM] | TGI AFTER 11 DAYS ([1]; 25 mg/kg orally once a day) [%] | TGI AFTER 11 DAYS ([1]; 50 mg/kg orally once a day) [%] | TGI AFTER 11 DAYS ([1]; 100 mg/kg orally once a day) [%] | TGI AFTER 11 DAYS ([2]; 25 mg/kg orally once a day) [%] | TGI AFTER 11 DAYS ([2]; 50 mg/kg orally once a day) [%] | TGI AFTER 11 DAYS ([2]; 100 mg/kg orally once a day) [%] | IC50 (RT112/84) [nM] | IC50 (BFTC-905) [nM] | IC50 (UM-UC-14) [nM] | IC50 (RT4) [nM] | tumor enlargement enhanced by the FGFR3-BAIAP2L1 fusion polypeptide [3] | IC50 [4] [nM] | IC50 [5] [nM]
6 | Cc1nc2ccc(-n3ncc(C(=O)c4cc5ccccc5[nH]4)c3N)cc2[nH]1 [COMPOUND A] | > 10000 | 120 | 61 | 86 | 125 | 47 | 79 | 111 | 18 | > 10000 | 110 | 350 | significantly suppressed |  | 
